TGI data for eight compounds are collected here from PubChem BioAssay (NCI).

Molecules are shown by their SMILES.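 Growth conditions: 96-well plates. Treatment: test compound, 48 hours, 5 concentrations. Analysis: linear interpolation between bracketing concentrations; unreached endpoints set to highest concentration. TGI: concentration producing complete growth inhibition.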

Among the test systems are RPMI-8226 leukemia; KM12 colon; TK-10 renal; SF-268 CNS; NCI-H23 lung; PC-3 prostate; K-562 leukemia; IGROV1 ovarian; CCRF-CEM leukemia; RXF 393 renal; MDA-MB-231 breast; SF-295 CNS; DU-145 prostate; HCT-116 colon; SNB-19 CNS; HCT-15 colon; SF-539 CNS; SK-OV-3 ovarian.
Common to all, as to test: DTP human tumour cell line panel, 48 h

Turning to `NC(Cc1ccc(OCc2ccccc2)cn1)C(=O)O` (stereo not given), the concentration for total growth inhibition (TGI) in the assay on RPMI-8226 leukemia, with KM12 colon, with TK-10 renal, with SF-268 CNS, with NCI-H23 lung and in the assay with PC-3 prostate was more than 100 µM in each case. For the same compound, the concentration for total growth inhibition (TGI) in the assay with K-562 leukemia, in the assay with IGROV1 ovarian, with CCRF-CEM leukemia, in the assay on RXF 393 renal, with MDA-MB-231 breast and in the assay on SF-295 CNS was more than 100 µM each time. Besides, the concentration for total growth inhibition (TGI) in the assay with DU-145 prostate, with HCT-116 colon, in the assay with SNB-19 CNS, in the assay on HCT-15 colon and with SF-539 CNS was more than 100 µM in each case.
Take `CCOC(=O)C(/C(=N/S(=O)(=O)c1cc(C)c(Cl)cc1[S-])[n+]1ccc(N(C)C)cc1)=C(/O)c1ccc([N+](=O)[O-])cc1`: the TGI in the assay with RPMI-8226 leukemia is 63.7 µM; with KM12 colon it was 82.7 µM; in the assay with TK-10 renal, 58.7 µM; in the assay with SF-268 CNS, more than 100 µM; with SK-OV-3 ovarian it was 68.4 µM; in the assay with PC-3 prostate, 68.6 µM. Moreover, the TGI is more than 100 µM in the assay with K-562 leukemia; more than 100 µM in the assay on IGROV1 ovarian; 87.2 µM with CCRF-CEM leukemia; more than 100 µM in the assay with RXF 393 renal; more than 100 µM in the assay with MDA-MB-231 breast; 54.1 µM with SF-295 CNS. The concentration for total growth inhibition (TGI) with DU-145 prostate was more than 100 µM; in the assay with HCT-116 colon it was 36.7 µM; in the assay on HCT-15 colon, more than 100 µM; in the assay with SF-539 CNS it was 53.9 µM.
On to `O=C1/C(=C\Oc2ccc(F)cc2)N2CCC1CC2`, for which the concentration for total growth inhibition (TGI) with RPMI-8226 leukemia, in the assay on TK-10 renal, with SF-268 CNS, in the assay on SK-OV-3 ovarian, in the assay with NCI-H23 lung and in the assay with PC-3 prostate was more than 100 µM in each case. In addition, the TGI with K-562 leukemia, in the assay with IGROV1 ovarian, in the assay on CCRF-CEM leukemia, with RXF 393 renal, with MDA-MB-231 breast and in the assay on SF-295 CNS was more than 100 µM in each case. In addition, the TGI with DU-145 prostate is 36.7 µM; in the assay with HCT-116 colon, more than 100 µM; in the assay with SNB-19 CNS, more than 100 µM; with HCT-15 colon, more than 100 µM; with SF-539 CNS, more than 100 µM.
For the compound `CC(NC(=O)/C(=C/c1ccccc1)NC(=O)c1ccccc1)C(=O)O` (stereo not given), the concentration for total growth inhibition (TGI) with RPMI-8226 leukemia, in the assay with KM12 colon, in the assay on SF-268 CNS, in the assay with SK-OV-3 ovarian, with NCI-H23 lung and with PC-3 prostate was more than 100 µM each time. For the same compound, the TGI with K-562 leukemia, with IGROV1 ovarian, in the assay on CCRF-CEM leukemia, with RXF 393 renal, with MDA-MB-231 breast and in the assay on SF-295 CNS was more than 100 µM in each case. The TGI was more than 100 µM in the assay on DU-145 prostate; more than 100 µM in the assay with HCT-116 colon; more than 100 µM in the assay on SNB-19 CNS; more than 100 µM in the assay with HCT-15 colon; 96.6 µM in the assay with SF-539 CNS.
As to `COc1ccccc1NC(=S)NN=C(C)c1cccc(C(C)=NNC(=S)Nc2ccccc2OC)n1`, the total growth inhibition concentration (TGI) in the assay on RPMI-8226 leukemia, with KM12 colon, with SF-268 CNS, in the assay on SK-OV-3 ovarian, in the assay with NCI-H23 lung and in the assay with PC-3 prostate was more than 100 µM each time. Besides, the TGI with K-562 leukemia is more than 100 µM; in the assay with IGROV1 ovarian it was more than 100 µM; in the assay on CCRF-CEM leukemia it was more than 100 µM; with RXF 393 renal, 47.6 µM; with MDA-MB-231 breast it was 68.9 µM; with SF-295 CNS, more than 100 µM. Besides, the concentration for total growth inhibition (TGI) was more than 100 µM with DU-145 prostate; 11.1 µM in the assay with HCT-116 colon; more than 100 µM with SNB-19 CNS; more than 100 µM in the assay on HCT-15 colon; 62.4 µM with SF-539 CNS.
`O=c1ccn(CC2(CO)CCC2)c(=O)[nH]1`: the TGI with RPMI-8226 leukemia, in the assay on KM12 colon, in the assay with TK-10 renal, in the assay with SF-268 CNS, in the assay with SK-OV-3 ovarian and in the assay with NCI-H23 lung was more than 100 µM in each case. Also, the TGI in the assay on PC-3 prostate, with K-562 leukemia, in the assay on IGROV1 ovarian, with CCRF-CEM leukemia, in the assay with RXF 393 renal and with MDA-MB-231 breast was more than 100 µM in each case. For the same compound, the TGI in the assay on SF-295 CNS, in the assay on DU-145 prostate, with HCT-116 colon, with HCT-15 colon and in the assay with SF-539 CNS was more than 100 µM throughout.
As for `CC1=CC(=O)CC(C)(C)C1/C=C/C(C)=C/C=C/C(C)=C/C=C/C=C(C)/C=C/C=C(C)/C=C/C1C(C)=CC(=O)CC1(C)C` (stereo not given), the TGI in the assay on RPMI-8226 leukemia, with KM12 colon, in the assay on TK-10 renal, in the assay on SF-268 CNS, in the assay on SK-OV-3 ovarian and in the assay on NCI-H23 lung was more than 100 µM each time. For the same compound, the TGI with PC-3 prostate, in the assay with K-562 leukemia, with IGROV1 ovarian, in the assay with CCRF-CEM leukemia, with RXF 393 renal and with MDA-MB-231 breast was more than 100 µM in each case. Besides, the TGI in the assay on SF-295 CNS is more than 100 µM; in the assay with DU-145 prostate, more than 100 µM; with HCT-116 colon it was 55.1 µM; in the assay with HCT-15 colon it was 85 µM; in the assay with SF-539 CNS, more than 100 µM.
Take `O=C1C[C@H](c2ccccc2)O[C@@H](c2ccccc2)C1`: the TGI in the assay on RPMI-8226 leukemia, with KM12 colon, in the assay on SF-268 CNS, with SK-OV-3 ovarian, in the assay on NCI-H23 lung and in the assay with PC-3 prostate was more than 100 µM throughout. In addition, the TGI was 72.3 µM in the assay with K-562 leukemia; more than 100 µM in the assay on IGROV1 ovarian; more than 100 µM in the assay on CCRF-CEM leukemia; more than 100 µM in the assay on RXF 393 renal; more than 100 µM in the assay with MDA-MB-231 breast; more than 100 µM in the assay on SF-295 CNS. Also, the concentration for total growth inhibition (TGI) with DU-145 prostate, with HCT-116 colon, in the assay with SNB-19 CNS, in the assay on HCT-15 colon and with SF-539 CNS was more than 100 µM throughout.

By TGI is commonly meant the concentration at which net growth stops. Read a low TGI as more potent growth arrest.
